Test results from patent publication US8741579B2, “Compounds and methods for the modulation of beta-1 integrin function to mediate tissue repair” (priority 2007, dated 2014).
Where a SMILES comes first, the peptide text is derived from it. The star is where a group is joined. Cbz = O=C(OCc1ccccc1)*; CH2F = FC*

What was measured:
[1] = tested on: adult human lung fibroblasts (CCD-8Lu) overlayered with NCI-H441 cells; assay: Caspase 3/7 activity (Caspase-Glo 3/7) in human lung co-culture under cyclic stretch; format: cell-based; details: cyclic stretch 6 hours; JB1a 1 μg/ml; ZVAD-fmk 10 or 20 μM
Experimental: (§1) Adult human lung fibroblasts (CCD-8Lu) were seeded onto collagen I coated BioFlex 6 well plates at 0.5×10^6/well. The following day, NCI-H441 were seeded on top of the fibroblasts at the same density. […] Cells were starved with media containing 0.1% FCS. The plates were subjected to stretching at 0-5%, 0-10% or 2-10% sinusoidal stretch at 1 Hz for 6 hours. Control plates on plastic or bioflex plates without stretch were also included. PPE was added at 0.06 or 0.3 U/ml alone or in combination with JB1a (1 μg/ml) and ZVAD-fmk at 10 or 20 μM. At the end of the 6 hour period, the media was aspirated and caspase 3 activity assayed using Caspase-Glo™ 3/7 (Promega) according to the manufacturers' instructions. Separate experiments were performed at up to 6 hours of stretching where the cells were fixed with 4% paraformaldehyde and stained using Alexa-fluor phalloidin and TO-PRO3 (Molecular Probes). Images were acquired using Zeiss Axioskope using a x63 water achroplan objective and analysed using LSM 5 Image software.

[2] = tested on: adult human lung fibroblasts (CCD-8Lu) overlayered with NCI-H441 cells; assay: F-actin aggregates (phalloidin staining) in human lung co-culture under stretch; format: cell-based; details: stretch up to 6 hours; JB1a 1 μg/ml; ZVAD-fmk
Experimental: as §1

[3] = target: human beta 1 integrin (Integrin beta-1 precursor, Fibronectin receptor subunit beta, Integrin VLA-4 subunit beta, CD29 antigen) (human) (UniProt P05556); assay: cell-based or functional assay
UniProt P05556, sequence (P05556 21-798 T112H/S215T): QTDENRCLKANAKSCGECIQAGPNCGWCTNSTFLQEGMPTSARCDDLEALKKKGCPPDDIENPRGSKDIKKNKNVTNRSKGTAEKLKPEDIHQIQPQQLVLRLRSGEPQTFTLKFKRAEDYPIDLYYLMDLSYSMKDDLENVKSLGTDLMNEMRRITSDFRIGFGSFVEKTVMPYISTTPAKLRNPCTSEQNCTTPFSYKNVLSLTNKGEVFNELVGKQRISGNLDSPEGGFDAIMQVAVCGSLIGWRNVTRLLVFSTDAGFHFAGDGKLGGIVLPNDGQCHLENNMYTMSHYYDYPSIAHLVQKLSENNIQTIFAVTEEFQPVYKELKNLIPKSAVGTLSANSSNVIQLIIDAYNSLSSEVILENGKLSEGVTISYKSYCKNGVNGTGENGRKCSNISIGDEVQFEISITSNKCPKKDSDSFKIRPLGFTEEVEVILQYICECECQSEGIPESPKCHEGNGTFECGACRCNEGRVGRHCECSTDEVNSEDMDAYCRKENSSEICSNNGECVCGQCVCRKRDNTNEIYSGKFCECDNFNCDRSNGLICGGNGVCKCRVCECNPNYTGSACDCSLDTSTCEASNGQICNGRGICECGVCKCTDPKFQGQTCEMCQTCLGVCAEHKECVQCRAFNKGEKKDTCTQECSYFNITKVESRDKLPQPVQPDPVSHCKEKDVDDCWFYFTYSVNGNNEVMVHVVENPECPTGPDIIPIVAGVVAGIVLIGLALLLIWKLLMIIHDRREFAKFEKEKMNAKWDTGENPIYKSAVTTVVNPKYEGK

| Compound | elastase-induced caspase 3 and 7 activation [1] | elastase-induced increase in F-actin aggregates [2] | IL-1beta-stimulated IL-8 secretion by primary human chondrocytes, reduction [3] [%] |
| --- | --- | --- | --- |
| COC(=O)C[C@H](NC(=O)[C@H](C)NC(=O)[C@@H](NC(=O)OCc1ccccc1)C(C)C)C(=O)CF [ZVAD-fmk] (Cbz-Val-Ala-Asp(OMe)-CH2F) | inhibited elastase-induced caspase activation | inhibited |  |
| JB1a monoclonal antibody (JB1A mouse anti-CD29 (Integrin beta-1 subunit) IgG monoclonal antibody, unconjugated, clone JB1a, Millipore, Catalogue number MAB-1965) |  |  | 50 |
